The source made the active and inactive calls. The calls are words filed in the database; no cut-off is given here.
Columns and labels:
[1] = Nephrotoxicity against human HEK293 cells assessed as inhibition of cell proliferation incubated for 48 hrs by celltiter-luminescence assay; type: toxicity, cell-based
[2] = Hepatotoxicity against human HepG2 cells assessed as inhibition of cell proliferation incubated for 48 hrs by celltiter-luminescence assay; type: toxicity, cell-based
[3] = molecular target: T1, Sodium-dependent dopamine transporter (Homo sapiens, UniProt Q01959); assay: Inhibition of DAT (unknown origin) at 10 uM relative to control
T1 sequence (Q01959 whole entry): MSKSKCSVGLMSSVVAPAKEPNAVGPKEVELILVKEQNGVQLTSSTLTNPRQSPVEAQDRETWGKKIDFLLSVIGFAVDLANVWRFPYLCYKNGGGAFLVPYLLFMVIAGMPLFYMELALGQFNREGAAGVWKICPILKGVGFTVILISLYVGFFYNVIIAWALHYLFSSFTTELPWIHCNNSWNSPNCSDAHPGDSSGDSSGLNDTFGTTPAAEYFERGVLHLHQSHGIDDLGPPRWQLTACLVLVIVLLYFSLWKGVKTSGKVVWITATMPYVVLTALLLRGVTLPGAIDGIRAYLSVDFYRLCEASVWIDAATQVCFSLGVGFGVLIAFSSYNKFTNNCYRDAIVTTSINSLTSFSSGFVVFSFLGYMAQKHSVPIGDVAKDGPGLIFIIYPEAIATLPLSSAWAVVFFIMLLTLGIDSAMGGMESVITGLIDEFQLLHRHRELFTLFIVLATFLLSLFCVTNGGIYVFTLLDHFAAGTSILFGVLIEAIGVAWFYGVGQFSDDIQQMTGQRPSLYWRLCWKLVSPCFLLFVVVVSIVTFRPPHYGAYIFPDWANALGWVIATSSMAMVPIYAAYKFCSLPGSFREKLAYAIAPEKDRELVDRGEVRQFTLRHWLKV

[4] = molecular target: T2, Sodium-dependent noradrenaline transporter (Homo sapiens, UniProt P23975); assay: Inhibition of human NET
T2 sequence (P23975 whole entry): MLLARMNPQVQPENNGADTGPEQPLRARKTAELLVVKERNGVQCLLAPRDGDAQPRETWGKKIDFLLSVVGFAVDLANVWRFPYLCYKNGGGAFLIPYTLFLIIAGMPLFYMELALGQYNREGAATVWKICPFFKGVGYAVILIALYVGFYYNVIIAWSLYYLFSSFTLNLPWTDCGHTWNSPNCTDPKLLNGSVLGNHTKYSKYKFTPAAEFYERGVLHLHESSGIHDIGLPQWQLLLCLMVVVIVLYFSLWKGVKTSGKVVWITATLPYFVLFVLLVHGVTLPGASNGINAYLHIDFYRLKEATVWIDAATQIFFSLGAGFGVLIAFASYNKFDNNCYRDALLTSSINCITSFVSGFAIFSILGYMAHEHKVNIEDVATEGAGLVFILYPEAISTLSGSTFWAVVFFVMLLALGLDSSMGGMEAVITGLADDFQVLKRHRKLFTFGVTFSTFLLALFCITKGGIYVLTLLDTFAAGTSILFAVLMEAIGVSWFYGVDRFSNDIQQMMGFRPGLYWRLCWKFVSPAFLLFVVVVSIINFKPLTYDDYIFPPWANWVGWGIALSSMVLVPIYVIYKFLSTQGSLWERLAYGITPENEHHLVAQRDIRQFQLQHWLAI

[5] = molecular target: T3, Glutamate NMDA receptor; GRIN1/GRIN2A (Homo sapiens, UniProt Q05586+Q12879); assay: Inhibition of human GluN1/GluN2A NMDA receptor expressed in HEK293 cells assessed as reduction in glutamate induced current at -70 mV holding potential by whole-cell patch clamp technique; type: cell-based
T3 sequence (Q12879 whole entry, other chains not shown): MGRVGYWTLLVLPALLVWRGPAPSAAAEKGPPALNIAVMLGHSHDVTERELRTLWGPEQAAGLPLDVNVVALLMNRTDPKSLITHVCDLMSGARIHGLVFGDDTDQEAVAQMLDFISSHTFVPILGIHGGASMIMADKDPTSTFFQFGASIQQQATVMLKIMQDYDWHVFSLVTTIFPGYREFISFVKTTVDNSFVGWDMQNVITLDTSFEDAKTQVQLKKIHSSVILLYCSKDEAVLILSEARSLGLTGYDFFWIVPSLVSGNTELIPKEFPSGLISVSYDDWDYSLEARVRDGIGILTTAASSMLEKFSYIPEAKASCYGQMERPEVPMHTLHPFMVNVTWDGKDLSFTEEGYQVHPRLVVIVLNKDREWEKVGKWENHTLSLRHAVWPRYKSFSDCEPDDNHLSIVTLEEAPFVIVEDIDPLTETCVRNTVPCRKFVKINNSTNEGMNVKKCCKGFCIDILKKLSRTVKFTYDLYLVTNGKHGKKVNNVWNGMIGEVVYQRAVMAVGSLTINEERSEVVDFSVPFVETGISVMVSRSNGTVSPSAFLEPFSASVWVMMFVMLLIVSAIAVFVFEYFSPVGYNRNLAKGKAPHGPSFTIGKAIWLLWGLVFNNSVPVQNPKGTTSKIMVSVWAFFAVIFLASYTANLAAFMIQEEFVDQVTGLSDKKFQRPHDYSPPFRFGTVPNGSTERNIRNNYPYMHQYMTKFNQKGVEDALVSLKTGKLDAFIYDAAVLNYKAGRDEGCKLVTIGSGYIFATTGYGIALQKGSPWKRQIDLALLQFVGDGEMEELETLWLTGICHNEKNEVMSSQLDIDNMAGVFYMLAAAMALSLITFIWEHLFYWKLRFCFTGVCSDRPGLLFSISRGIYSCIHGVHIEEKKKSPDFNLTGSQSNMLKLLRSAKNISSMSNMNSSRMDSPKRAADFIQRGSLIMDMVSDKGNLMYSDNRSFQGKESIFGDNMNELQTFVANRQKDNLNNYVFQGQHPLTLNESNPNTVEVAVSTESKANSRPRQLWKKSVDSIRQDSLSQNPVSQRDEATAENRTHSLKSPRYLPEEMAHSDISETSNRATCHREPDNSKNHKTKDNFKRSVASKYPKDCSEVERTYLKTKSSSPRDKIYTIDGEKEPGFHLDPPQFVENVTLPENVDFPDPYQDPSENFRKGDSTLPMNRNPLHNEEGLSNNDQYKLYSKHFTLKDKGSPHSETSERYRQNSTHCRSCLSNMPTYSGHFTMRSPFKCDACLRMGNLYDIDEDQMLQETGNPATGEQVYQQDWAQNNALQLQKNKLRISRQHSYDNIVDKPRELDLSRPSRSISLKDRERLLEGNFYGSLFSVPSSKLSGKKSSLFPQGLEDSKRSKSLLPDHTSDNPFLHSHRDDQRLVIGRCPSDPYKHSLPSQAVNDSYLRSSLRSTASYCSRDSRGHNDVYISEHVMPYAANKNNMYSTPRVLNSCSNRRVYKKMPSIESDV

[6] = molecular target: Sodium-dependent serotonin transporter (Homo sapiens, UniProt P31645)
Sequence of Sodium-dependent serotonin transporter (P31645 whole entry): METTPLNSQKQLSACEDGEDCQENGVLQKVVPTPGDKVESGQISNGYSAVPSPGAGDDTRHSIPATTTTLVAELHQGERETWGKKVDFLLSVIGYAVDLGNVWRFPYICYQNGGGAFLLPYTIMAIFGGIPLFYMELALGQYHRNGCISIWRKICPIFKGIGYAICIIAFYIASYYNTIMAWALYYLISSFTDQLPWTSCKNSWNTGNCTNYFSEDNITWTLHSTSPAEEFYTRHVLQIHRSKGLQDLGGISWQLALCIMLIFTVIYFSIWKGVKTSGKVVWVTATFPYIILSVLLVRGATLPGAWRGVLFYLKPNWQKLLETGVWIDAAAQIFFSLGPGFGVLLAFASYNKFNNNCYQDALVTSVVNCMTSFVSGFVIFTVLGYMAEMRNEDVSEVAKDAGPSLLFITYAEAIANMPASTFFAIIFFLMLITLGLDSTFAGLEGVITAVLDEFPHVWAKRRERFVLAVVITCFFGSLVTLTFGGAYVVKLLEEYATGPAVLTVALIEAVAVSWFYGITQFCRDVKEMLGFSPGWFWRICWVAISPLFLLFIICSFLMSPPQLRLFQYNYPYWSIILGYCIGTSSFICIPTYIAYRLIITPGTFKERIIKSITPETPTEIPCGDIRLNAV

[7] = Selectivity index, ratio of IC50 for inhibition of human GluN1/GluN2A NMDA receptor expressed in HEK293 cells to IC50 for inhibition of SERT (unknown origin); type: cell-based
Mu-type opioid receptor = Mu-type opioid receptor (Homo sapiens, UniProt P35372); assay: Agonist activity at human mu-opioid receptor stably expressed in CHO cells assessed as inhibition of forskolin-induced cAMP accumulation at 30 uM preincubated with compound for 10 mins followed by forskolin induction and measured after 30 mins by LANCE Ultra cAMP assay relative to control; type: functional, cell-based; conditions: time 40.0 min
Sequence of Mu-type opioid receptor (P35372 whole entry): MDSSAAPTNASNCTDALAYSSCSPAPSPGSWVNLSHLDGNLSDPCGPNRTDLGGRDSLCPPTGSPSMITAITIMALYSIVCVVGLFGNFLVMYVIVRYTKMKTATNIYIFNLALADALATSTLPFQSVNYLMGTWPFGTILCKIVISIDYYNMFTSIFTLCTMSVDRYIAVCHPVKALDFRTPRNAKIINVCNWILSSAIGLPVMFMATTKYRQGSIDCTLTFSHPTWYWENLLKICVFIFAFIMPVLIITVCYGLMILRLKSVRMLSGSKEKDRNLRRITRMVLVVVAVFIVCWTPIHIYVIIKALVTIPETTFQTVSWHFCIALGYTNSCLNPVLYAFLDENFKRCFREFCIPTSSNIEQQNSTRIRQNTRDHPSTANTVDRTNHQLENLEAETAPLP

[8] = molecular target: T2, Sodium-dependent noradrenaline transporter; assay: Inhibition of NET (unknown origin) at 10 uM relative to control
[9] = molecular target: T3, Glutamate NMDA receptor; GRIN1/GRIN2A; assay: Antagonist activity at human GluN1/GluN2A NMDA receptor expressed in HEK293 cells assessed as reduction in glutamate induced current at -70 mV holding potential by whole-cell patch clamp technique; type: cell-based
Mus musculus = assay: Antidepressant activity in ip dosed C57BL/6J mouse assessed as reduction in of immobility time by forced swim test; type: functional, organism-based; conditions: dose 10-20 mg/kg
[10] = Tmax in ICR mouse at 10 mg/kg, ip measured upto 24 hrs by LC-MS/MS analysis; type: ADME, organism-based; conditions: in vivo
[11] = AUC (0 to t) in ICR mouse at 10 mg/kg, po measured upto 24 hrs by LC-MS/MS analysis; type: ADME, organism-based; conditions: in vivo
[12] = Cmax in ICR mouse at 10 mg/kg, po measured upto 24 hrs by LC-MS/MS analysis; type: ADME, organism-based; conditions: in vivo
[13] = Metabolic stability in mouse liver microsome assessed as intrinsic clearance in presence of NADPH measured upto 60 mins by LC-MS/MS analysis; type: ADME; conditions: liver microsomes, read-out: CLH
[14] = Metabolic stability in mouse liver microsome assessed as hepatic clearance in presence of NADPH measured upto 60 mins by LC-MS/MS analysis; type: ADME; conditions: liver microsomes
[15] = MRT (0 to t) in ICR mouse at 10 mg/kg, po measured upto 24 hrs by LC-MS/MS analysis; type: ADME, organism-based; conditions: in vivo
[16] = AUC (0 to t) in ICR mouse at 10 mg/kg, ip measured upto 24 hrs by LC-MS/MS analysis; type: ADME, organism-based; conditions: in vivo
[17] = Cmax in ICR mouse at 10 mg/kg, ip measured upto 24 hrs by LC-MS/MS analysis; type: ADME, organism-based; conditions: in vivo
[18] = Tmax in ICR mouse at 10 mg/kg, po measured upto 24 hrs by LC-MS/MS analysis; type: ADME, organism-based; conditions: in vivo
[19] = AUC (0 to infinity) in ICR mouse at 10 mg/kg, po measured upto 24 hrs by LC-MS/MS analysis; type: ADME, organism-based; conditions: in vivo
[20] = AUC (0 to infinity) in ICR mouse at 10 mg/kg, ip measured upto 24 hrs by LC-MS/MS analysis; type: ADME, organism-based; conditions: in vivo
[21] = MRT (0 to infinity) in ICR mouse at 10 mg/kg, ip measured upto 24 hrs by LC-MS/MS analysis; type: ADME, organism-based; conditions: in vivo
[22] = Half life in ICR mouse at 10 mg/kg, po measured upto 24 hrs by LC-MS/MS analysis; type: ADME, organism-based; conditions: in vivo
[23] = Metabolic stability in mouse liver microsome assessed as half life in presence of NADPH measured upto 60 mins by LC-MS/MS analysis; type: ADME; conditions: liver microsomes
[24] = Metabolic stability in mouse liver microsome assessed as hepatic extraction ratio in presence of NADPH measured upto 60 mins by LC-MS/MS analysis; type: ADME; conditions: liver microsomes, read-out: ERH
[25] = Half life in ICR mouse at 10 mg/kg, ip measured upto 24 hrs by LC-MS/MS analysis; type: ADME, organism-based; conditions: in vivo
[26] = molecular target: T1, Sodium-dependent dopamine transporter; assay: Inhibition of DAT (unknown origin)

Structure (SMILES): Cc1ccc(Sc2ccccc2N2CCNCC2)c(C)c1 [VORTIOXETINE]
- IC50 at 48 h [1]: 12.2 µM
- IC50 at 48 h [2]: 8.1 µM

Structure (SMILES): Cc1ccc2c(c1)[C@]13CCCC[C@@H]1[C@H](C2)N(C)CC3 [DIMEMORFAN]
- inhibition [3]: inactive
- IC50 [4]: 1.22 µM
- IC50 [5]: 2.96 µM
- IC50 [6]: 148 µM
- Ratio IC50 [7]: 20
- inhibition (Mu-type opioid receptor): 21%

Structure (SMILES): CC(=O)c1ccc2c(c1)[C@]13CCCC[C@@H]1[C@H](C2)N(C)CC3
- inhibition [3]: inactive
- inhibition [8]: inactive
- IC50 [5]: > 40 µM
- IC50 [6]: 130 µM
- inhibition (Mu-type opioid receptor; filed as agonist): 87%

Structure (SMILES): CCc1ccc2c(c1)[C@]13CCCC[C@@H]1[C@H](C2)NCC3
- inhibition [3]: inactive
- IC50 [4]: 4.71 µM
- IC50 [5]: 0.5 µM
- IC50 [6]: 1890 µM
- inhibition (Mu-type opioid receptor): 33%

Structure (SMILES): CCOc1ccc2c(c1)[C@]13CCCC[C@@H]1[C@H](C2)N(C)CC3
- inhibition [3]: 10%
- inhibition [8]: 33%
- IC50 [5]: 1.81 µM
- IC50 [6]: 15 µM
- inhibition (Mu-type opioid receptor): 26%

Structure (SMILES): c1ccc2c(c1)C[C@@H]1NCC[C@]23CCCC[C@H]13
- inhibition [3]: 20%
- inhibition [8]: 14%
- IC50 [6]: 8300 µM
- IC50 [9]: 0.43 µM
- inhibition (Mu-type opioid receptor; filed as agonist): 95%

Structure (SMILES): CNC(=O)c1ccc2c(c1)[C@]13CCCC[C@@H]1[C@H](C2)N(C)CC3
- inhibition [3]: 15%
- inhibition [8]: 12%
- IC50 [5]: 19.9 µM
- IC50 [6]: 335 µM
- inhibition (Mu-type opioid receptor): 25%

Structure (SMILES): CCOc1ccc2c(c1)[C@]13CCCC[C@@H]1[C@H](C2)NCC3
- inhibition [3]: 16%
- inhibition [8]: 12%
- IC50 [5]: 0.34 µM
- IC50 [6]: 463 µM
- inhibition (Mu-type opioid receptor): 24%

Structure (SMILES): CN1CC[C@@]23CCCC[C@@H]2[C@@H]1Cc1ccc(NC(=O)c2ccccc2)cc13
- inhibition [3]: 15%
- inhibition [8]: inactive
- IC50 [5]: 2.2 µM
- IC50 [6]: 7600 µM
- inhibition (Mu-type opioid receptor): 14%

Structure (SMILES): CN1CC[C@@]23CCCC[C@@H]2[C@@H]1Cc1ccc(C(=O)NC2CC2)cc13
- inhibition [3]: 6%
- inhibition [8]: inactive
- IC50 [5]: 9.23 µM
- IC50 [6]: 5660 µM
- inhibition (Mu-type opioid receptor; filed as agonist): 60%

Structure (SMILES): CC(=O)Nc1ccc2c(c1)[C@]13CCCC[C@@H]1[C@H](C2)N(C)CC3
- Activity (Mus musculus): Dose-dependent-effect
- inhibition [3]: 19%
- inhibition [8]: inactive
- IC50 [5]: 2.17 µM
- Tmax [10]: 4.8 min
- AUC(0-t) at 24 h [11]: 1220 ng·h/mL
- Cmax [12]: 1040 ng/mL
- CLint scaled [13]: 35.1 mL/min/kg
- CLhep predicted [14]: 25.3 mL/min/kg
- MRT last at 24 h [15]: 62.4 min
- AUC(0-t) at 24 h [16]: 1080 ng·h/mL
- Cmax [17]: 1680 ng/mL
- Tmax [18]: 11.4 min
- AUC(0-inf) [19]: 1220 ng·h/mL
- AUC(0-inf) [20]: 1080 ng·h/mL
- MRT inf [21]: 40.8 min
- half-life [22]: 51.6 min
- half-life [23]: 267 min
- IC50 [6]: 435 µM
- hepatic extraction ratio at 1 h [24]: 0.281
- half-life [25]: 44.4 min
- inhibition (Mu-type opioid receptor): 36%

Structure (SMILES): CN1CC[C@@]23CCCC[C@@H]2[C@@H]1Cc1ccc(C(C)(C)O)cc13
- inhibition [3]: inactive
- inhibition [8]: inactive
- IC50 [5]: > 40 µM
- IC50 [6]: 9000 µM
- inhibition (Mu-type opioid receptor): 11%

Structure (SMILES): CN1CC[C@@]23CCCC[C@@H]2[C@@H]1Cc1ccc(NC=O)cc13
- inhibition [3]: 6%
- inhibition [8]: inactive
- IC50 [5]: 3.07 µM
- IC50 [6]: 270 µM
- inhibition (Mu-type opioid receptor): 33%

Structure (SMILES): c1ccc2cc([C@]34CNC[C@H]3C4)ccc2c1 [CENTANAFADINE]
- IC50 [26]: 0.06 µM
- IC50 [4]: 0.01 µM
- IC50 [6]: 90 µM
- Activity (Mu-type opioid receptor): inactive

Structure (SMILES): CCOc1ccc2c(c1)[C@]13CCCC[C@@H]1[C@H](C2)N(CC)CC3
- inhibition [3]: 6%
- inhibition [8]: 26%
- IC50 [5]: 1.3 µM
- IC50 [6]: 2000 µM
- inhibition (Mu-type opioid receptor): 4%

Structure (SMILES): CCc1ccc2c(c1)[C@]13CCCC[C@@H]1[C@H](C2)N(CC)CC3
- inhibition [3]: 5%
- inhibition [8]: 24%
- IC50 [5]: 9.87 µM
- IC50 [6]: 2300 µM
- inhibition (Mu-type opioid receptor): 10%

Structure (SMILES): CN1CC[C@@]23CCCC[C@@H]2[C@@H]1Cc1ccccc13
- inhibition [3]: 15%
- IC50 [4]: 17.3 µM
- IC50 [5]: 2.96 µM
- IC50 [6]: 333 µM
- inhibition (Mu-type opioid receptor): 39%

Structure (SMILES): CN1CC[C@@]23CCCC[C@@H]2[C@@H]1Cc1ccc(O)cc13 [DEXTRORPHAN]
- inhibition [3]: inactive
- IC50 [4]: 2.84 µM
- IC50 [5]: 0.28 µM
- IC50 [6]: 633 µM

Structure (SMILES): CCc1ccc2c(c1)[C@]13CCCC[C@@H]1[C@H](C2)N(C)CC3
- inhibition [3]: 13%
- IC50 [4]: 4.9 µM
- IC50 [5]: 5.18 µM
- IC50 [6]: 238 µM
- inhibition (Mu-type opioid receptor): 23%

Structure (SMILES): CCN1CC[C@@]23CCCC[C@@H]2[C@@H]1Cc1ccc(O)cc13
- inhibition [3]: 12%
- IC50 [4]: 10.6 µM
- IC50 [5]: 0.28 µM
- IC50 [6]: 5400 µM
- inhibition (Mu-type opioid receptor): 9%

Structure (SMILES): COC(=O)c1ccc2c(c1)[C@]13CCCC[C@@H]1[C@H](C2)N(C)CC3
- inhibition [3]: inactive
- inhibition [8]: 12%
- IC50 [5]: 4.77 µM
- IC50 [6]: 17 µM
- inhibition (Mu-type opioid receptor; filed as agonist): 88%

Structure (SMILES): CC(O)c1ccc2c(c1)[C@]13CCCC[C@@H]1[C@H](C2)N(C)CC3 (some centres not stated)
- inhibition [3]: inactive
- inhibition [8]: 39%
- IC50 [6]: 1090 µM
- inhibition (Mu-type opioid receptor): 8%

Structure (SMILES): COc1ccc2c(c1)[C@]13CCCC[C@@H]1[C@H](C2)NCC3
- inhibition [3]: 4%
- inhibition [8]: 44%
- IC50 [5]: 0.3 µM
- IC50 [6]: 1170 µM
- inhibition (Mu-type opioid receptor): 23%

Structure (SMILES): Cc1ccc2c(c1)[C@]13CCCC[C@@H]1[C@H](C2)NCC3
- inhibition [3]: inactive
- IC50 [4]: 5.72 µM
- IC50 [5]: 0.28 µM
- IC50 [6]: 2090 µM
- inhibition (Mu-type opioid receptor): 16%

Structure (SMILES): CNc1ccc2c(c1)[C@]13CCCC[C@@H]1[C@H](C2)N(C)CC3
- inhibition [3]: 10%
- inhibition [8]: 25%
- IC50 [5]: 6.23 µM
- IC50 [6]: 577 µM
- inhibition (Mu-type opioid receptor): 14%

Structure (SMILES): CCN1CC[C@@]23CCCC[C@@H]2[C@@H]1Cc1ccccc13
- inhibition [3]: inactive
- inhibition [8]: 23%
- IC50 [5]: 4.92 µM
- IC50 [6]: 11300 µM
- inhibition (Mu-type opioid receptor; filed as agonist): 40%

Source: ChEMBL document CHEMBL6114989, “D-morphinan analogs with favorable pharmacokinetic profiles as dual-acting antidepressants” (Eur J Med Chem, 2025)
